Measured values as given in patent US6900219B2, “ABCA-1 elevating compounds” (CV Therapeutics, Inc., priority 2002, dated 2005).

These compounds were tested on ABCA-1 gene (assay: compounds tested and found to elevate cellular expression of the ABCA-1 gene (Examples 1-6; test not named)).
Type: cell-based
Procedure: Activity testing is conducted as described in those patents and patent applications referenced above, and in the Examples below, and by methods apparent to one skilled in the art.

| Compound | cellular expression of the ABCA-1 gene |
| --- | --- |
| O=C(Nc1nc(-c2ccc3ccccc3c2)cs1)c1cccc(C(F)(F)F)c1 [N-(4-(2-naphthyl)(1,3-thiazol-2-yl))[3-(trifluoromethyl)phenyl]carboxamide] | elevate cellular expression of the ABCA-1 gene |
| O=C(Nc1nc(-c2ccc3ccccc3c2)cs1)c1ccc(OC(F)(F)F)cc1 [N-(4-(2-naphthyl)(1,3-thiazol-2-yl))[4-(trifluoromethoxy)phenyl]carboxamide] | elevate cellular expression of the ABCA-1 gene |
| CC(=O)c1ccc(NC(=O)c2ccc(F)cc2)cc1 [N-(4-acetylphenyl)(4-fluorophenyl)carboxamide] | elevate cellular expression of the ABCA-1 gene |
| CC(=O)c1ccc(NC(=O)Nc2cccc(Cl)c2)cc1 [N-(4-acetylphenyl)[(3-chlorophenyl)amino]carboxamide] | elevate cellular expression of the ABCA-1 gene |
| O=C(Nc1ccc(Br)cc1)c1ccc2ccccc2c1 [N-(4-bromophenyl)-2-naphthylcarboxamide] | elevate cellular expression of the ABCA-1 gene |
| N#Cc1cccc(C(=O)Nc2nc3c(Cl)cccc3s2)c1 [N-(4-chlorobenzothiazol-2-yl)(3-cyanophenyl)carboxamide] | elevate cellular expression of the ABCA-1 gene |
| O=C(Nc1nc2c(Cl)cccc2s1)c1cccc(F)c1 [N-(4-chlorobenzothiazol-2-yl)(3-fluorophenyl)carboxamide] | elevate cellular expression of the ABCA-1 gene |
| N#Cc1ccc(C(=O)Nc2nc3c(Cl)cccc3s2)cc1 [N-(4-chlorobenzothiazol-2-yl)(4-cyanophenyl)carboxamide] | elevate cellular expression of the ABCA-1 gene |
| O=C(Nc1nc2c(Cl)cccc2s1)c1ccco1 [N-(4-chlorobenzothiazol-2-yl)-2-furylcarboxamide] | elevate cellular expression of the ABCA-1 gene |
| O=C(Nc1nc2c(Cl)cccc2s1)c1cccs1 [N-(4-chlorobenzothiazol-2-yl)-2-thienylcarboxamide] | elevate cellular expression of the ABCA-1 gene |
| CCCc1c(C(=O)Nc2nc3c(Cl)cccc3s2)cnn1-c1ccc(Cl)cc1 [N-(4-chlorobenzothiazol-2-yl)[1-(4-chlorophenyl)-5-propylpyrazol-4-yl]carboxamide] | elevate cellular expression of the ABCA-1 gene |
| O=C(Nc1ccc(Cl)cc1)c1ccc2ccccc2c1 [N-(4-chlorophenyl)-2-naphthylcarboxamide] | elevate cellular expression of the ABCA-1 gene |
| CCOc1ccc(NC(=O)Nc2ccc(Cl)cc2)cc1 [N-(4-ethoxyphenyl)[(4-chlorophenyl)amino]carboxamide] | elevate cellular expression of the ABCA-1 gene |
| O=C(Nc1ccc(F)cc1)c1cc2ccccc2oc1=O [N-(4-fluorophenyl)(2-oxochromen-3-yl)carboxamide] | elevate cellular expression of the ABCA-1 gene |
| Cc1ccc(NC(=O)Oc2ccc(C3=NCCS3)cc2)cc1 [N-(4-methylphenyl)(4-(1,3-thiazolin-2-yl)phenoxy)carboxamide] | elevate cellular expression of the ABCA-1 gene |
| Cc1cc(C)c2ccc(NC(=O)c3ccc(Cl)cc3)nc2n1 [N-(5,7-dimethylpyridino[3,2-e]pyridin-2-yl)(4-chlorophenyl)carboxamide] | elevate cellular expression of the ABCA-1 gene |
| O=C(Cc1cccs1)Nc1ncc(-c2ccccc2)s1 [N-(5-phenyl(1,3-thiazol-2-yl))-2-(2-thienyl)acetamide] | elevate cellular expression of the ABCA-1 gene |
| O=C(Nc1ncc(-c2ccccc2)s1)c1ccccn1 [N-(5-phenyl(1,3-thiazol-2-yl))-2-pyridylcarboxamide] | elevate cellular expression of the ABCA-1 gene |
| O=C(Nc1ncc(-c2ccccc2)s1)c1cccc(C(F)(F)F)c1 [N-(5-phenyl(1,3-thiazol-2-yl))[3-(trifluoromethyl)phenyl]carboxamide] | elevate cellular expression of the ABCA-1 gene |
| O=C(Nc1ncc(-c2ccccc2)s1)c1ccc(OC(F)(F)F)cc1 [N-(5-phenyl(1,3-thiazol-2-yl))[4-(trifluoromethoxy)phenyl]carboxamide] | elevate cellular expression of the ABCA-1 gene |
| N#Cc1cccc(C(=O)Nc2nc3ccc(Cl)cc3s2)c1 [N-(6-chlorobenzothiazol-2-yl)(3-cyanophenyl)carboxamide] | elevate cellular expression of the ABCA-1 gene |

| Compound | cellular expression of the ABCA-1 gene |
| --- | --- |
| CCOc1ccc2nc(NC(=O)Nc3ccccc3)sc2c1 [N-(6-ethoxybenzothiazol-2-yl)(phenylamino)carboxamide] | elevate cellular expression of the ABCA-1 gene |
| CCOc1ccc2nc(NC(=O)CC)sc2c1 [N-(6-ethoxybenzothiazol-2-yl)propanamide] | elevate cellular expression of the ABCA-1 gene |
| O=C(c1ccc(Br)cc1)N(CCc1ccccc1)Cc1c2ccccc2cc2ccccc12 [N-(9-anthrylmethyl)(4-bromophenyl)-N-(2-phenylethyl)carboxamide] | elevate cellular expression of the ABCA-1 gene |
| CCOc1ccc(C(=O)N(Cc2c3ccccc3cc3ccccc23)C(=O)Nc2ccccc2F)cc1 [N-(9-anthrylmethyl)(4-ethoxyphenyl)-N-{[(2-fluorophenyl)amino]carbonyl}-carboxamide] | elevate cellular expression of the ABCA-1 gene |
| COc1ccc(C(=O)N(CCc2ccccc2)Cc2c3ccccc3cc3ccccc23)cc1 [N-(9-anthrylmethyl)(4-methoxyphenyl)-N-(2-phenylethyl)carboxamide] | elevate cellular expression of the ABCA-1 gene |
| CCc1ccc(N(Cc2c3ccccc3cc3ccccc23)C(=O)Nc2ccccc2F)cc1 [N-(9-anthrylmethyl)-N-(4-ethylphenyl)[(2-fluorophenyl)amino]carboxamide] | elevate cellular expression of the ABCA-1 gene |
| CCn1c2ccccc2c2cc(NC(=O)c3ccc(F)cc3)ccc21 [N-(9-ethylcarbazol-3-yl)(4-fluorophenyl)carboxamide] | elevate cellular expression of the ABCA-1 gene |
| CCn1c2ccccc2c2cc(NC(=O)c3ccc(OC)cc3)ccc21 [N-(9-ethylcarbazol-3-yl)(4-methoxyphenyl)carboxamide] | elevate cellular expression of the ABCA-1 gene |
| CCn1c2ccccc2c2cc(NC(=O)c3ccc(C)cc3)ccc21 [N-(9-ethylcarbazol-3-yl)(4-methylphenyl)carboxamide] | elevate cellular expression of the ABCA-1 gene |
| CCCCCCCCCCCC(=O)N(/C=C/c1ccccc1)c1ccc(CC)cc1 [N-((1E)-2-phenylvinyl)-N-(4-ethylphenyl)dodecanamide] | elevate cellular expression of the ABCA-1 gene |
| CCc1ccc(C(=O)N(C/C=C/c2ccccc2)c2ccc(Br)cc2)cc1 [N-((2E)-3-phenylprop-2-enyl)-N-(4-bromophenyl)(4-ethylphenyl)carboxamide] | elevate cellular expression of the ABCA-1 gene |
| O=C(NCCc1ccccc1F)c1ccc2oc(N3CCCN(C(=O)Cc4ccc(C(F)(F)F)cc4)CC3)nc2c1 [N-[2-(2-fluorophenyl)ethyl][2-(4-{2-[4-(trifluoromethyl)phenyl]acetyl}(1,4-diazaperhydroepinyl))benzoxazol-5-yl]carboxamide] | elevate cellular expression of the ABCA-1 gene |
| O=C(NCCc1ccccc1F)c1ccc2oc(N3CCCN(C(=O)CCc4c[nH]c5ccccc45)CC3)nc2c1 [N-[2-(2-fluorophenyl)ethyl]{2-[4-(3-indol-3-ylpropanoyl)(1,4-diazaperhydroepinyl)]benzoxazol-5-yl}carboxamide] | elevate cellular expression of the ABCA-1 gene |
| COc1ccc(CCN(Cc2ccc(C(C)(C)C)cc2)C(=O)c2ccco2)cc1OC [N-[2-(3,4-dimethoxyphenyl)ethyl]-N-{[4-(tert-butyl)phenyl]methyl}-2-furylcarboxamide] | elevate cellular expression of the ABCA-1 gene |
| COc1ccc(CN(CCc2ccc(OC)c(OC)c2)C(=O)C2CC2)cc1 [N-[2-(3,4-dimethoxyphenyl)ethyl]cyclopropyl-N-[(4-methoxyphenyl)methyl]-carboxamide] | elevate cellular expression of the ABCA-1 gene |
| O=C(CNC(=O)c1ccccc1F)c1ccc(Cl)cc1 [N-[2-(4-chlorophenyl)-2-oxoethyl](2-fluorophenyl)carboxamide] | elevate cellular expression of the ABCA-1 gene |
| CC(c1nc2ccccc2c(=O)n1-c1ccc2ccccc2c1)N(CCN(C)C)C(=O)Nc1cccc(C#N)c1 (centres unmarked) [N-[2-(dimethylamino)ethyl][(3-cyanophenyl)amino]-N-[(3-(2-naphthyl)-4-oxo(3-hydroquinazolin-2-yl))ethyl]carboxamide] | elevate cellular expression of the ABCA-1 gene |
| COc1cccc(NC(=O)N(CCN(C)C)C(C)c2nc3ccccc3c(=O)n2-c2ccc3ccccc3c2)c1 (centres unmarked) [N-[2-(dimethylamino)ethyl][(3-methoxyphenyl)amino]-N-[(3-(2-naphthyl)-4-oxo(3-hydroquinazolin-2-yl))ethyl]carboxamide] | elevate cellular expression of the ABCA-1 gene |
| O=C(Nc1nc(-c2ccc(Cl)cc2)cs1)c1ccc(-c2ccccc2)cc1 [N-[4-(4-chlorophenyl)(1,3-thiazol-2-yl)](4-phenylphenyl)carboxamide] | elevate cellular expression of the ABCA-1 gene |
| O=C(Nc1nc(-c2ccc(Cl)cc2)cs1)c1ccc(C(F)(F)F)cc1F [N-[4-(4-chlorophenyl)(1,3-thiazol-2-yl)][2-fluoro-4-(trifluoromethyl)phenyl]-carboxamide] | elevate cellular expression of the ABCA-1 gene |
